Experimental data: the Kinase Knowledgebase extract (Sharma et al. 2016)

molecular target: PIK3CA (human) (UniProt P42336); assay: Inhibition of PIK3CA Kinase Activity
Sequence (P42336 whole entry, looked up): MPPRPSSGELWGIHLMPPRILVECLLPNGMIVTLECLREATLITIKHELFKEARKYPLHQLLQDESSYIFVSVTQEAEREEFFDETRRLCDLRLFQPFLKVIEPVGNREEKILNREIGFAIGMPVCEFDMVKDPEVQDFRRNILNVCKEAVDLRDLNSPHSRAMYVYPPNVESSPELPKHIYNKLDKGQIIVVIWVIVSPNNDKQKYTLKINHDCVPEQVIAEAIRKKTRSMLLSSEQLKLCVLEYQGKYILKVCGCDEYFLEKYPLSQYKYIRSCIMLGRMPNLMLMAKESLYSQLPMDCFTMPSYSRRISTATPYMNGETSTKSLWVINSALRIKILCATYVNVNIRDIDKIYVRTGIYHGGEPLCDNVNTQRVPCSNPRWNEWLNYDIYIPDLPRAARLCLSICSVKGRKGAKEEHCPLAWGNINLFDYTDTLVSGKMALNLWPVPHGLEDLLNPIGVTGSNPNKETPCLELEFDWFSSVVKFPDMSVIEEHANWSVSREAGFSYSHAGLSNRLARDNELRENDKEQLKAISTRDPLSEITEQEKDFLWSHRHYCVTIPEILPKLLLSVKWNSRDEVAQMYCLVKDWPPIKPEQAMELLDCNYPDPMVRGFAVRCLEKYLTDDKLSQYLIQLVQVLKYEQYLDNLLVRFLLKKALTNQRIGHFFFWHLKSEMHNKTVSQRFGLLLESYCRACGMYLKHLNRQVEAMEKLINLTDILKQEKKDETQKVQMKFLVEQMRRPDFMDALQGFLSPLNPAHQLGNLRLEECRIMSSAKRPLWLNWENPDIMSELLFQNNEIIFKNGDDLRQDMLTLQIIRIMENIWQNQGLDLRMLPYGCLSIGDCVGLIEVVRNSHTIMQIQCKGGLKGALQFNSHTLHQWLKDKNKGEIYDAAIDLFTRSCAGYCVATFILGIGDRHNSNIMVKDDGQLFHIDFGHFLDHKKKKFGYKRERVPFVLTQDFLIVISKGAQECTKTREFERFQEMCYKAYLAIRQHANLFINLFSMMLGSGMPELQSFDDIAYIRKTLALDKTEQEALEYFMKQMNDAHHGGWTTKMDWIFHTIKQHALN

Structure (SMILES)	IC50 [nM]
C[C@@H](CO)CS(=O)(=O)c1cc(-c2ccc3c(c2)CN(c2ncnc4c2CC(C)(C)CC4)CCO3)cnc1N	≤ 10
Cc1nc2ncc(-c3ccc4c(c3)CN(c3nc(CNC(C)C)nc5c3CC(C)(C)CC5)CCO4)cc2[nH]1	≤ 10
CC1(C)CCc2ncnc(N3CCOc4ccc(-c5cnc(N)c(S(=O)(=O)N6C[C@H]7C[C@@H]6CN7)c5)cc4C3)c2C1	50 to 250
Cc1nc2ccc(-c3ccc4c(c3)CN(c3ncnc(C)c3Cc3cc(F)cc(Cl)c3)CCO4)cc2[nH]1	10 to 50
COc1cc2ncnc(N3CCOc4ccc(-c5ccc6nc(C)[nH]c6c5)cc4C3)c2cc1Br	50 to 250
Cc1ncnc(N2CCOc3ccc(-c4ccc5[nH]c(NCCF)nc5c4)cc3C2)c1Cc1ccc(F)cc1	10 to 50
CC[C@@H](C)NCc1nc2c(c(N3CCOc4ccc(-c5cnc6nc(C)[nH]c6c5)cc4C3)n1)CC(C)(C)CC2	10 to 50
Cc1nc2ccc(-c3ccc4c(c3)CN(c3ncnc5cc(Cl)c(Br)cc35)CCO4)cc2[nH]1	250 to 1000
COc1ccc2c(N3CCOc4ccc(-c5cnc(NC(C)=O)s5)cc4C3)nc(C)nc2c1	10 to 50
Cc1nc2ncc(-c3ccc4c(c3)CN(c3nc(CNC5CC5)nc5c3CC(C)(C)CC5)CCO4)cc2[nH]1	10 to 50
CC1(C)CCc2ncnc(N3CCOc4ccc(-c5ccc(Cl)c(NS(C)(=O)=O)c5)cc4C3)c2C1	250 to 1000
CCNc1nc2ccc(-c3ccc4c(c3)CN(c3nc(C)nc5cc(OC)c(OC)cc35)CCO4)cc2[nH]1	10 to 50
Cc1nc2cc(-c3ccc4c(c3)CN(c3nc(CN5CCCC5)nc(C)c3C(C)C)CCO4)ccc2[nH]1	10 to 50
CC1(C)CCc2ncnc(N3CCOc4ccc(-c5cnc(Cl)c(CS(C)(=O)=O)c5)cc4C3)c2C1	250 to 1000
CC1(C)CCc2ncnc(N3CCOc4ccc(-c5cnc(N)c(S(=O)(=O)N6C7CCC6CC(N)C7)c5)cc4C3)c2C1 (configuration not stated)	10 to 50
CCNc1nc2ccc(-c3ccc4c(c3)CN(c3ccnc5ccc(OC)cc35)CCO4)cc2[nH]1	10 to 50
CC1(C)CCc2ncnc(N3CCOc4ccc(-c5ccc6nc[nH]c6c5)cc4C3)c2C1	50 to 250
Cc1nc2cc(-c3ccc4c(c3)CN(c3nc([C@H]5CCCN5)nc5c3CC(C)(C)CC5)CCO4)ccc2[nH]1	10 to 50
Cc1nc2ccc(-c3ccc4c(c3)CN(c3ncnc5c(C(F)(F)F)cccc35)CCO4)cc2[nH]1	250 to 1000
Cc1c(NCCC2CCCN2C)ncnc1N1CCOc2ccc(-c3cnc4nc(C5CC5)[nH]c4c3)cc2C1 (configuration not stated)	50 to 250
CC1(C)CCc2ncnc(N3CCOc4ccc(-c5cnc(N)c(S(=O)(=O)N6CCOCC6)c5)cc4C3)c2C1	50 to 250
Cc1c(Nc2ccccc2)ncnc1N1CCOc2ccc(-c3cnc4nc(N)[nH]c4c3)cc2C1	≤ 10

Structure (SMILES)	IC50 [nM]
Cc1nc2ccc(-c3ccc4c(c3)CN(c3ncnc5c(C)cccc35)CCO4)cc2[nH]1	10 to 50
CCc1nc2cc(-c3ccc4c(c3)CN(c3ncnc5c3CC(C)(C)CC5)CCO4)cnc2[nH]1	10 to 50
COC(=O)Nc1nc2ccc(-c3ccc4c(c3)CN(c3ncnc5[nH]ccc35)CCO4)cc2[nH]1	250 to 1000
CN(C)S(=O)(=O)c1cc(-c2ccc3c(c2)CN(c2ncnc4c2CC(C)(C)CC4)CCO3)cnc1N	10 to 50
CC(=O)OCc1nc(C)c(Cc2ccc(F)cc2)c(N2CCOc3ccc(-c4ccc5[nH]c(C)nc5c4)cc3C2)n1	10 to 50
CC1(C)CCc2ncnc(N3CCOc4ccc(-c5cnc(N)c(S(=O)(=O)CCCO)c5)cc4C3)c2C1	10 to 50
COc1ccc2c(N3CCOc4ccc(-c5ccc(-c6c[nH]cn6)cc5)cc4C3)nc(C)nc2c1	50 to 250
Cc1nc2ccc(-c3ccc4c(c3)CN(c3nc(-c5ccccn5)nc5c3CC(C)(C)CC5)CCO4)cc2[nH]1	250 to 1000
Cc1nc2ccc(-c3ccc4c(c3)CN(c3ncnc5c3CC(C)(C)CC5)CCO4)cc2[nH]1	10 to 50
CCc1nc(CN(C)C)nc(N2CCOc3ccc(-c4cnc5[nH]c(C)nc5c4)cc3C2)c1C	10 to 50
Cc1nc2ccc(-c3ccc4c(c3)CN(c3ncnc5sccc35)CCO4)cc2[nH]1	250 to 1000
Cc1nc2ncc(-c3ccc4c(c3)CN(c3nc(-c5ccccn5)nc5c3CC(C)(C)CC5)CCO4)cc2[nH]1	50 to 250
Cc1ncnc(N2CCOc3ccc(-c4ccc5sc(N)nc5n4)cc3C2)c1Cc1ccc(F)cc1	10 to 50
Cn1c(N)nc2cc(-c3ccc4c(c3)CN(c3ccnc5ccccc35)CCO4)ccc21	250 to 1000
Cc1ncnc(N2CCOc3ccc(-c4ccc5nc(N)cn5c4)cc3C2)c1Cc1ccc(F)cc1	10 to 50
CC1(C)CCc2ncnc(N3CCOc4ccc(-c5cnc(N)c(S(C)(=O)=O)c5)cc4C3)c2C1	10 to 50
COc1ccc2ncnc(N3CCOc4ccc(-c5ccc6nc(C)[nH]c6c5)cc4C3)c2c1	50 to 250
CNc1ncnc(N2CCOc3ccc(-c4cnc5nc(C)[nH]c5c4)cc3C2)c1C	10 to 50
Cc1nc2ccc(-c3ccc4c(c3)CN(c3ncnc(C(C)C)c3C)CCO4)cc2[nH]1	50 to 250
CC(=O)OCc1nc(C)c(C(C)C)c(N2CCOc3ccc(-c4ccc5nc(C)[nH]c5c4)cc3C2)n1	50 to 250
Cc1nc(N)nc(N2CCOc3ccc(-c4ccc5[nH]cnc5c4)cc3C2)c1Cc1ccc(F)cc1	≤ 10
Cc1nc2ccc(-c3ccc4c(c3)CN(c3ccnc(N)n3)CCO4)cc2[nH]1	250 to 1000

Structure (SMILES)	IC50 [nM]
Cc1ncnc(N2CCOc3ccc(-c4ccc5nc(N)[nH]c5c4)cc3C2)c1Cc1ccc(F)cc1	10 to 50
CCOC(=O)Nc1nc2ncc(-c3ccc4c(c3)CN(c3ncnc5c3CC(C)(C)CC5)CCO4)cc2[nH]1	50 to 250
Cc1nc2ccc(-c3ccc4c(c3)CN(c3ncnc(C)c3C)CCO4)cc2[nH]1	50 to 250
CCNCc1nc2c(c(N3CCOc4ccc(-c5cnc6nc(C)[nH]c6c5)cc4C3)n1)CC(C)(C)CC2	≤ 10
CC1(C)CCc2ncnc(N3CCOc4ccc(-c5cnc(N)c(S(=O)(=O)NCCF)c5)cc4C3)c2C1	≤ 10
CCc1nc(CN(C)C)nc(N2CCOc3ccc(-c4ccc5[nH]c(C)nc5c4)cc3C2)c1C	10 to 50
COc1ccc2c(N3CCOc4ccc(-c5cnc6[nH]cnc6c5)cc4C3)nc(CN(C)C)nc2c1	≤ 10
Cc1nc2ccc(-c3ccc4c(c3)CN(c3ncnc5c(F)cccc35)CCO4)cc2[nH]1	50 to 250
c1ccc2c(N3CCOc4ccc(-c5ccc6nc[nH]c6c5)cc4C3)ccnc2c1	10 to 50
COc1ccc2c(N3CCOc4ccc(-c5cnc(N)nc5)cc4C3)nc(C)nc2c1	50 to 250
COc1c(Cl)cc2c(N3CCOc4ccc(-c5ccc6nc(C)[nH]c6c5)cc4C3)ncnc2c1OC	50 to 250
Cc1nc2cc(-c3ccc4c(c3)CN(c3nc(N)nc(C)c3Cc3ccc(F)cc3)CCO4)ccc2[nH]1	≤ 10
c1ccc2c(N3CCOc4ccc(-c5ccc6[nH]ncc6c5)cc4C3)ccnc2c1	250 to 1000
Cc1nc2ccc(-c3ccc4c(c3)CN(c3ncnc(C)c3Cc3cccc(C(F)(F)F)c3)CCO4)cc2[nH]1	50 to 250
CC(C)(CO)CNS(=O)(=O)c1cc(-c2ccc3c(c2)CN(c2ncnc4c2CC(C)(C)CC4)CCO3)cnc1N	50 to 250
CCN1CCc2c(ncnc2N2CCOc3ccc(-c4ccc5nc(C)[nH]c5c4)cc3C2)C1	250 to 1000
Cc1nc2cc(-c3ccc4c(c3)CN(c3nc(CN(C)C)nc(C)c3C)CCO4)cnc2[nH]1	10 to 50
Cc1nc2ncc(-c3ccc4c(c3)CN(c3nc(CN(C)C(C)C)nc5c3CC(C)(C)CC5)CCO4)cc2[nH]1	≤ 10
CCNc1nc2ccc(-c3ccc4c(c3)CN(c3nc(C)nc5cc(F)ccc35)CCO4)cc2[nH]1	≤ 10
Cc1nc2ccc(-c3ccc4c(c3)CN(c3nc(C(C)(C)O)nc5c3CC(C)(C)CC5)CCO4)cc2[nH]1	50 to 250
CCc1c(C)nc(CN(C)C)nc1N1CCOc2ccc(-c3cnc4sc(N)nc4c3)cc2C1	≤ 10
CC1(C)CCc2ncnc(N3CCOc4ccc(-c5cnc(N)c(S(=O)(=O)NCC(O)CN)c5)cc4C3)c2C1 (configuration not stated)	≤ 10

Structure (SMILES)	IC50 [nM]
CC[C@H]1CCc2c(nc(C)nc2N2CCOc3ccc(-c4cnc5nc(C)[nH]c5c4)cc3C2)C1	≤ 10
Cc1nc2cc(-c3ccc4c(c3)CN(c3nc([C@H]5CCCN5)nc5c3CC(C)(C)CC5)CCO4)cnc2[nH]1	≤ 10
Cc1ccc(Cc2c(C)ncnc2N2CCOc3ccc(-c4ccc5nc(C)[nH]c5c4)cc3C2)cc1	50 to 250
Cc1nc2ncc(-c3ccc4c(c3)CN(c3ncnc5c3CCCC5(C)C)CCO4)cc2[nH]1	50 to 250
Cc1nc2cc(-c3ccc4c(c3)CN(c3nc(CN(C)C)nc(C)c3Cc3ccc(F)cc3)CCO4)cnc2[nH]1	≤ 10
Cc1nc2ccc(-c3ccc4c(c3)CN(c3ncnc5cc(Br)ccc35)CCO4)cc2[nH]1	50 to 250
CN1CC[C@H](CNS(=O)(=O)c2cc(-c3ccc4c(c3)CN(c3ncnc5c3CC(C)(C)CC5)CCO4)cnc2N)C1	50 to 250
CCNc1nc2ccc(-c3ccc4c(c3)CN(c3cc(Nc5cccc(OC)c5)ncn3)CCO4)cc2[nH]1	250 to 1000
Cc1ncnc(N2CCOc3ccc(-c4ccc(C(=O)NCC(F)F)cc4)cc3C2)c1Cc1ccc(F)cc1	50 to 250
COC(=O)Nc1nc2ccc(-c3ccc4c(c3)CN(c3ccncn3)CCO4)cc2[nH]1	250 to 1000
Cc1nc2ccc(-c3ccc4c(c3)CN(c3ncnc5ccc(OCCCN(C)C)cc35)CCO4)cc2[nH]1	250 to 1000
CCc1ncnc(N2CCOc3ccc(-c4ccc5nc(C)[nH]c5c4)cc3C2)c1C	50 to 250
Cc1nc(C)c(Cc2ccc(F)cc2)c(N2CCOc3ccc(-c4ccc5nc(C)[nH]c5c4)cc3C2)n1	10 to 50
CC(=O)OCc1nc2c(c(N3CCOc4ccc(-c5cnc6nc(C)[nH]c6c5)cc4C3)n1)CC(C)(C)CC2	10 to 50
CCNc1nc2ccc(-c3ccc4c(c3)CN(c3cc(C)nc5cc(F)ccc35)CCO4)cc2[nH]1	≤ 10
Cc1nc2ccc(-c3ccc4c(c3)CN(c3nc(CNC5CC5)nc(C)c3Cc3ccc(F)cc3)CCO4)cc2[nH]1	10 to 50
Cc1c(NC2CCN(C)CC2)ncnc1N1CCOc2ccc(-c3cnc4nc(C5CC5)[nH]c4c3)cc2C1	10 to 50
CCNc1nc2ccc(-c3ccc4c(c3)CN(c3cc(C)nc5ccccc35)CCO4)cc2[nH]1	≤ 10
CC(CO)NS(=O)(=O)c1cc(-c2ccc3c(c2)CN(c2ncnc4c2CC(C)(C)CC4)CCO3)cnc1N (configuration not stated)	≤ 10
Cc1nc2ncc(-c3ccc4c(c3)CN(c3nc(CNC5CCC5)nc5c3CC(C)(C)CC5)CCO4)cc2[nH]1	10 to 50
CC1(C)CCc2ncnc(N3CCOc4ccc(-c5cnc6nccnc6c5)cc4C3)c2C1	250 to 1000
